Source: patent publication US7112573B2, “Isoflavone and triterpene glycosides from soybeans” (Iowa Research, The University Foundation, priority 2002, dated 2006)
Converted amounts (≈) assume the structure as drawn.

Experiments:
Format in all cases: cell-based, human
Conditions in all cases: 6 days incubation, 50% reduction of absorbance vs untreated controls, mean of 2 observations
[1] = system: LNCAp-FGC prostate carcinoma cell line; assay: MTT cytotoxicity assay, LNCaP-FGC
Text: (§1) Here, as described herein below, the inventors used human stomach carcinoma (Hs 740.T, Hs 756 T), breast adenocarcinoma (Hs 578 T, Hs 742.T) and prostate carcinoma (DU 145, and LNCaP-FGC) cell lines to evaluate the cytotoxic activities of extracts and the compounds provided the invention. The 50% effective doses (ED50) obtained by measuring growth inhibition with MTT (3-[4,5-dimethlthiazol-2-yl]-2,5-diphenyltetrazolium bromide]) (Goren et al, 1996; Rubinstein et al, 1990) are shown in Table 3.
(§2) The following materials and reagents were used for cell culture and cytotoxic assays. Human stomach carcinoma (Hs 740.T, Hs 756 T), breast adenocarcinoma (Hs 578 T, Hs 742.T) and prostate carcinoma (DU 145, LNCaP-FGC) cell lines were purchased from the American Type Culture Collection ATCC. Dulbecco's modified Eagle medium (DMEM) (Gibco, Grand Island, N.Y.), Eagle Minimum Essential Medium (EMEM) and Rosewell Park Memorial Institute (RPMI) 1640 medium were from Nissui Pharm. Co., Ltd., Tokyo, Japan. Flat-bottom plates, 96-well were from Iwaki Glass Co., LTD (Funabashi-Chiba-Ken, Japan). The 3-[4,5-dimethlthiazol-2-yl]-2,5-diphenyltetrazolium bromide (MTT) colorimetric assay (Goren et al., 1996; Rubinstein et al., 1990) was from Sigma (St. Louis, Mo., USA), and 10% fetal bovine serum FBS was from Gibco BRL (Rockville, Md., USA). All other chemicals used were of analytical reagent grade.
(§3) Cell lines Hs 740.T, Hs 746 T, Hs 578 T and Hs 742.T were cultured in Dulbecco's Modified Eagle's Medium (DMEM) containing 10% heat-inactivated Fetal Bovine Serum (FBS). The DU 145 cells were cultured in Eagle Minimum Essential Medium (EMEM) containing Earle's salts and supplemented with amino acids and 10% heat-inactivated FBS. The LNCaP-FGC cell lines were maintained in Rosewell Park Memorial Institute (RPMI) 1640 medium containing 10% heat-inactivated FBS. All cell lines were cultivated in an incubator at 37° C. in humidified air containing 5% CO2. For routine cytotoxicity assays, all six cell lines were adapted to one single medium RPMI 1640 medium supplemented with 10% FBS, 2 mM L-glutamine, penicillin (100 units/mL) and streptomycin (100 μg/mL). For the microassay, the growth medium was supplemented with 10 mM HEPES (1-(2-hydroxyethyl) piperazine-4-ethanesulfonic acid) buffer (pH 7.3) and incubated at 37° C. in a CO2 incubator. These methods are similar to those used by Goren et al., (1996) AND Rubinstein et al., (1990).
(§4) Cellular viability in the presence and absence of experimental agents was determined using the standard MTT (3-[4,5-dimethlthiazol-2-yl]-2,5-diphenyltetrazolium bromide) calorimetric assay (Goren et al., 1996; Rubinstein et al., 1990). The assay is based on reduction of MTT by the mitochondrial dehydrogenase of viable cells to give a blue formazan product that can be measured spectrophotometrically (Goren et al., 1996; Rubinstein et al., 1990). In brief, exponentially growing cells were harvested, and 200 μL cells suspension were seeded in 96-well microplates and preincubated for 24 h at 37° C. under 5% CO2 to allow cell attachment. After attachment, 10 μL of an EtOH: H2O (1:1 solution) containing varying concentrations of test samples were added to wells in duplicate, and 10 μL EtOH:H2O (1:1) was added into wells as a control. Sample containing microplates were further incubated for 6 days. Cell survival was evaluated by adding 10 μL of 5 mg mL of MTT in 0.1 mM, pH 7.4 phosphate buffered saline to each well, and reincubating plates in 5% CO2/air for 4 h at 37° C. Plates were then centrifuged at 1,500×g for 5 min to precipitate cells and MTT formazan. An aliquot of 100 μL of the supernatant was removed, and DMSO (100 μL) was added to dissolve the precipitated, reduced MTT. The plate was mixed on a microshaker for 10 min, and the absorbance was determined at 550 nm with a multiwell scanning spectrophotometer (Dynex MR 5000, Chantilly Va.). […]

[2] = system: Hs 578 T breast adenocarcinoma cell line; assay: MTT cytotoxicity assay, Hs 578 T
Text: as §1, §2, §3, §4

[3] = system: HS 742.T breast adenocarcinoma cell line; assay: MTT cytotoxicity assay, HS 742.T
Text: as §1, §2, §3, §4

[4] = system: Hs 740.T stomach carcinoma cell line; assay: MTT cytotoxicity assay, Hs 740.T
Text: as §1, §2, §3, §4

[5] = system: Hs 746 T stomach carcinoma cell line; assay: MTT cytotoxicity assay, Hs 746 T
Text: as §1, §2, §3, §4

[6] = system: DU 145 prostate carcinoma cell line; assay: MTT cytotoxicity assay, DU 145
Text: as §1, §2, §3, §4

SMILES | ED50 Prostate Carcinoma LNCAp-FGC [1] [µg/mL] | ED50 Breast Adenocarcinoma Hs 578 T [2] [µg/mL] | ED50 Breast Adenocarcinoma HS 742.T [3] [µg/mL] | ED50 Stomach Carcinoma Hs 740.T [4] [µg/mL] | ED50 Stomach Carcinoma Hs 746 T [5] [µg/mL] | ED50 Prostate Carcinoma DU 145 [6] [µg/mL]
O=C1c2ccc(O[C@@H]3O[C@H](CO)[C@@H](O)[C@H](O)[C@H]3O)cc2OCC1c1ccc(O)cc1 (stereo partly drawn) [Compound 1, 7-O-β-D-glucopyranosyl-4′-hydroxy-isoflavanone] | 32.45 (≈ 77.6 µM) | 28.23 (≈ 67.5 µM) | 33.57 (≈ 80.2 µM) | 17.37 (≈ 41.5 µM) | 14.92 (≈ 35.7 µM) | 9.16 (≈ 21.9 µM)
O=C1c2c(O)cc(O[C@@H]3O[C@H](CO)[C@@H](O)[C@H](O)[C@H]3O)cc2OCC1c1ccc(O)cc1 (stereo partly drawn) [Compound 2, 7-O-β-D-glucopyranosyl-5,7,4′-trihydroxyisoflavanone] | 41.58 (≈ 95.7 µM) | 15.36 (≈ 35.4 µM) | 30.80 (≈ 70.9 µM) | 15.12 (≈ 34.8 µM) | 12.24 (≈ 28.2 µM) | 10.25 (≈ 23.6 µM)
COc1ccc(-c2coc3cc(OC4OC(COC(C)=O)[C@@H](O)C(O)C4OC(C)=O)ccc3c2=O)cc1 (stereo partly drawn) [Compound 3, formononetin-7-O-(2″,6″-O-diacetyl) glucopyranoside] | 22.12 (≈ 43 µM) | 5.44 (≈ 10.6 µM) | 25.53 (≈ 49.6 µM) | 7.61 (≈ 14.8 µM) | 8.89 (≈ 17.3 µM) | 4.18 (≈ 8.12 µM)
O=c1c(-c2ccc(O)cc2)coc2cc(O)cc(O)c12 [Compound 5, genistein, reference compound] | 25.45 (≈ 94.2 µM) | 3.50 (≈ 13 µM) | 14.88 (≈ 55.1 µM) | 4.38 (≈ 16.2 µM) | 5.82 (≈ 21.5 µM) | 2.39 (≈ 8.84 µM)
C[C@@H]1O[C@@H](O[C@H]2[C@H](O[C@@H]3CC(C)(C)C[C@H]4C5=CC[C@@H]6[C@@]7(C)CC[C@H](O[C@@H]8O[C@H](C(=O)O)[C@@H](O)[C@H](O)[C@H]8O[C@@H]8O[C@H](CO)[C@H](O)[C@H](O)[C@H]8O[C@@H]8O[C@@H](C)[C@H](O)[C@@H](O)[C@H]8O)[C@@](C)(CO)[C@@H]7CC[C@@]6(C)[C@]5(C)CC[C@@]34C)OC[C@H](O)[C@@H]2O)[C@H](O)[C@H](O)[C@H]1O [Compound 13] | 27.50 (≈ 22.5 µM) | 2.39 (≈ 1.96 µM) | 17.51 (≈ 14.3 µM) | 3.53 (≈ 2.89 µM) | 2.47 (≈ 2.02 µM) | 3.12 (≈ 2.55 µM)
C[C@@H]1O[C@@H](O[C@H]2[C@H](O[C@H]3[C@H](O[C@H]4CC[C@@]5(C)[C@@H](CC[C@]6(C)[C@@H]5CC=C5[C@@H]7CC(C)(C)C[C@@H](O[C@@H]8O[C@H](CO)[C@@H](O)[C@H](O)[C@H]8O[C@@H]8O[C@@H](C)[C@H](O)[C@@H](O)[C@H]8O)[C@]7(C)CC[C@]56C)[C@]4(C)CO)O[C@H](C(=O)O)[C@@H](O)[C@@H]3O)O[C@H](CO)[C@H](O)[C@@H]2O)[C@H](O)[C@H](O)[C@H]1O [Compound 14] | 24.10 (≈ 19.3 µM) | 2.12 (≈ 1.69 µM) | 14.63 (≈ 11.7 µM) | 4.10 (≈ 3.28 µM) | 3.94 (≈ 3.15 µM) | 3.25 (≈ 2.6 µM)
CC1(C)C[C@H]2C3=CC[C@@H]4[C@@]5(C)CC[C@H](O[C@@H]6O[C@H](C(=O)O)[C@@H](O)[C@H](O)[C@H]6O[C@@H]6O[C@H](CO)[C@H](O)[C@H](O)[C@H]6O)[C@](C)(CO)[C@@H]5CC[C@@]4(C)[C@]3(C)CC[C@@]2(C)[C@H](O[C@@H]2OC[C@H](O)[C@H](O[C@@H]3O[C@H](CO)[C@@H](O)[C@H](O)[C@H]3O)[C@H]2O)[C@@H]1O [Compound 15, 3-O-{[β-D-galactopyranosyl-(1→2)-β-D-glucuronopyranosyl]}-22-O-[β-D-glucopyranosyl(1→3)-α-L-arabinopyranosyl]soyasapogenol A, reference compound] | 30.70 (≈ 27.7 µM) | 4.84 (≈ 4.37 µM) | 30.10 (≈ 27.2 µM) | 3.15 (≈ 2.84 µM) | 3.22 (≈ 2.91 µM) | 2.11 (≈ 1.91 µM)
CC1(C)C[C@@H](O)[C@]2(C)CC[C@]3(C)C(=CC[C@@H]4[C@@]5(C)CC[C@H](O[C@@H]6O[C@H](C(=O)O)[C@@H](O)[C@H](O)[C@H]6O[C@@H]6O[C@H](CO)[C@H](O)[C@H](O)[C@H]6O[C@@H]6O[C@H](CO)[C@@H](O)[C@H](O)[C@H]6O)[C@@](C)(CO)[C@@H]5CC[C@]43C)[C@@H]2C1 [Compound 16, 3-O-[β-D-glucopyranosyl-(1→2)-β-D-galactopyranosyl(1→2)-β-D-glucuronopyranosyl] soyasapogenol B, reference compound] | 40.68 (≈ 42.4 µM) | 9.87 (≈ 10.3 µM) | 31.55 (≈ 32.9 µM) | 8.97 (≈ 9.35 µM) | 7.36 (≈ 7.67 µM) | 5.75 (≈ 5.99 µM)
CC1(C)C[C@@H](O)[C@]2(C)CC[C@]3(C)C(=CC[C@@H]4[C@@]5(C)CC[C@H](O[C@@H]6O[C@H](C(=O)O)[C@@H](O)[C@H](O)[C@H]6O)[C@@](C)(CO)[C@@H]5CC[C@]43C)[C@@H]2C1 [Compound 17, 3-O-[β-D-glucuronopyranosyl]soyasapogenol B, reference compound] | 37.29 (≈ 58.7 µM) | 8.77 (≈ 13.8 µM) | 28.68 (≈ 45.2 µM) | 9.61 (≈ 15.1 µM) | 9.59 (≈ 15.1 µM) | 9.13 (≈ 14.4 µM)
